According to patent publication US10294202B2, “Pyrrolidinones as herbicides” (FMC Corporation, priority 2013, dated 2019):

Columns and labels:
sedge, umbrella = experiment: Test B flooded paddy test; type: in vivo, Cyperus difformis; details: 500 g ai/ha, Flood; scale of 0 to 100 where 0 is no effect and 100 is complete control
Summary of the method: (§1)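 Treatment was made at the 2-leaf stage by dosing the standing floodwater, kept 3 cm above soil level for the whole test. Greenhouse exposure lasted 13 to 15 days. Response is a visual percent rating relative to controls, where a dash indicates no test result.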

galium = experiment: Test A postemergence herbicide test; type: in vivo, Galium aparine
Summary of the method: (§2)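 Blackgrass and galium grown in pots of loam soil–sand blend, treated postemergence at 2–10 cm height, one- to two-leaf stage. Plants kept in greenhouse ~10 days, then visually rated for injury against untreated controls on a 0–100 scale (0 no effect, 100 complete control).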

blackgrass = experiment: Test A postemergence herbicide test; type: in vivo, Alopecurus myosuroides
Summary of the method: as §2

corn = experiment: Test A pre-/postemergence herbicide test; type: in vivo, Zea mays; details: Postemergence
Summary of the method: (§3)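 Visual 0–100 ratings (100 = complete control) made about 10 days after treatment, greenhouse-held plants compared with untreated controls. Treatments: postemergence sprays on one- to two-leaf plants (2–10 cm tall) and preemergence directed soil sprays after planting in loam–sand, chemicals formulated in non-phytotoxic solvent containing surfactant.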

wheat = experiment: Test A pre-/postemergence herbicide test; type: in vivo, Triticum aestivum; details: Postemergence
Summary of the method: as §3

ragweed = experiment: Test A pre-/postemergence herbicide test; type: in vivo, Ambrosia elatior
Summary of the method: as §3

ryegrass, Italian = experiment: Test A pre-/postemergence herbicide test; type: in vivo, Lolium multiflorum
Summary of the method: as §3

ducksalad = experiment: Test B flooded paddy test; type: in vivo, Heteranthera limosa; details: 500 g ai/ha, Flood; scale of 0 to 100 where 0 is no effect and 100 is complete control
Summary of the method: as §1

pigweed = experiment: Test A pre-/postemergence herbicide test; type: in vivo, Amaranthus retroflexus
Summary of the method: as §3

rice = experiment: Test B flooded paddy test; type: in vivo, Oryza sativa; details: 500 g ai/ha, Flood; scale of 0 to 100 where 0 is no effect and 100 is complete control
Summary of the method: as §1

giant foxtail = experiment: Test A pre-/postemergence herbicide test; type: in vivo, Setaria faberii
Summary of the method: as §3

kochia = experiment: Test A pre-/postemergence herbicide test; type: in vivo, Kochia scoparia
Summary of the method: as §3

barnyardgrass [1] = experiment: Test A pre-/postemergence herbicide test; type: in vivo, Echinochloa crus-galli
Summary of the method: as §3

barnyardgrass [2] = experiment: Test B flooded paddy test; type: in vivo, Echinochloa crus-galli; details: 500 g ai/ha, Flood; scale of 0 to 100 where 0 is no effect and 100 is complete control
Summary of the method: as §1

[3] = 125 g ai/ha, visual rating on 0 to 100 scale (0 no effect, 100 complete control), approx. 10 days
[4] = 500 g ai/ha, 0 to 100 scale (0 no effect, 100 complete control)
[5] = Postemergence, 125 g ai/ha, visual rating on 0 to 100 scale (0 no effect, 100 complete control), approx. 10 days
[6] = Postemergence, 500 g ai/ha, 0 to 100 scale (0 no effect, 100 complete control)
[7] = Preemergence, 125 g ai/ha, 0 to 100 scale where 0 is no effect and 100 is complete control
[8] = preemergence, 500 g ai/ha, 0 to 100 scale, 0 is no effect and 100 is complete control
[9] = 125 g ai/ha, 0 to 100 scale, 0 is no effect, 100 is complete control
[10] = 125 g ai/ha, visual rating, 0 to 100 scale, 0 no effect, 100 complete control, approximately 10 days, preemergence
[11] = Postemergence, 125 g ai/ha, 0 to 100 scale, 0 is no effect, 100 is complete control

CSc1cccc(C2CNC(=O)C2C(=O)Nc2ccc(F)cc2F)c1 (stereo not drawn) [Compound 288]
20: Ryegrass, Italian plant response rating (ryegrass, Italian; Preemergence, 500 g ai/ha, visual rating on 0 to 100 scale (0 no effect, 100 complete control)) | Plant response rating, Foxtail, Giant (giant foxtail; [5]) | Plant response rating, Kochia (kochia; [6]) | Plant response rating, Barnyardgrass (barnyardgrass [1]; [5]) | Plant response rating, Barnyardgrass (barnyardgrass [2])
65: Plant response rating, Ducksalad (ducksalad)
70: Plant response rating, Barnyardgrass (barnyardgrass [1]; [8])
30: Plant response rating, Foxtail, Giant (giant foxtail; [6]) | Plant response rating, Foxtail, Giant (giant foxtail; [7]) | Plant response rating, Kochia (kochia; [7]) | Plant response rating, Barnyardgrass (barnyardgrass [1]; [7])
80: Plant response rating, Barnyardgrass (barnyardgrass [1]; [6])
50: Plant response rating, Kochia (kochia; [8])
0: Plant response rating, Sedge, Umbrella (sedge, umbrella) | Plant response rating, Galium (galium; [3]) | Plant response rating, Galium (galium; [4]) | Plant response rating, Blackgrass (blackgrass; [3]) | Plant response rating, Blackgrass (blackgrass; [4]) | Plant response rating, Corn (corn; [3]) | Plant response rating, Corn (corn; [4]) | Plant response rating, Wheat (wheat; [3]) | Plant response rating, Wheat (wheat; [4]) | Plant response rating, Ragweed (ragweed; [5]) | Plant response rating, Ragweed (ragweed; [6]) | Plant response rating, Ragweed (ragweed; [7]) | Plant response rating, Ragweed (ragweed; [8]) | Plant response rating, Ryegrass, Italian (ryegrass, Italian; [5]) | Plant response rating, Ryegrass, Italian (ryegrass, Italian; [6]) | Plant response rating, Ryegrass, Italian (ryegrass, Italian; [7]) | Plant response rating, Pigweed (pigweed; [5]) | Plant response rating, Pigweed (pigweed; [6]) | Plant response rating, Pigweed (pigweed; [7]) | Plant response rating, Pigweed (pigweed; [8]) | Plant response rating, Rice (rice) | Plant response rating, Kochia (kochia; [5])
90: Plant response rating, Foxtail, Giant (giant foxtail; [8])

O=C1NCC(c2ccc(OC(F)F)cc2)C1C(=O)Nc1ccccc1Br (stereo not drawn) [Compound 225]
40: Plant response rating, Ryegrass, Italian (ryegrass, Italian; [8]) | Plant response rating, Foxtail, Giant (giant foxtail; [11])
30: Galium plant response rating (0 to 100 scale, 0 is no effect, 100 is complete control) (galium; 500 g ai/ha) | Blackgrass plant response rating (0 to 100 scale, 0 is no effect, 100 is complete control) (blackgrass; 500 g ai/ha) | Plant response rating, Kochia (kochia; [8]) | Plant response rating, Barnyardgrass (barnyardgrass [1]; [11]) | Plant response rating, Barnyardgrass (barnyardgrass [1]; [8])
20: Plant response rating, Galium (galium; [9]) | Corn plant response rating (0 to 100 scale, 0 is no effect, 100 is complete control) (corn; 500 g ai/ha) | Wheat plant response rating (0 to 100 scale, 0 is no effect, 100 is complete control) (wheat; 500 g ai/ha) | Plant response rating, Barnyardgrass (barnyardgrass [1]; [10])
60: Barnyardgrass plant response rating (0 to 100 scale, 0 is no effect, 100 is complete control) (barnyardgrass [1]; Postemergence, 500 g ai/ha)
90: Plant response rating, Ducksalad (ducksalad) | Plant response rating, Foxtail, Giant (giant foxtail; [8])
80: Plant response rating, Foxtail, Giant (giant foxtail; [10])
70: Foxtail, Giant plant response rating (0 to 100 scale, 0 is no effect, 100 is complete control) (giant foxtail; Postemergence, 500 g ai/ha)
0: Plant response rating, Sedge, Umbrella (sedge, umbrella) | Plant response rating, Blackgrass (blackgrass; [9]) | Plant response rating, Corn (corn; [9]) | Plant response rating, Wheat (wheat; [9]) | Plant response rating, Ragweed (ragweed; [10]) | Plant response rating, Ragweed (ragweed; [11]) | Ragweed plant response rating (0 to 100 scale, 0 is no effect, 100 is complete control) (ragweed; Postemergence, 500 g ai/ha) | Plant response rating, Ragweed (ragweed; [8]) | Plant response rating, Ryegrass, Italian (ryegrass, Italian; [10]) | Plant response rating, Ryegrass, Italian (ryegrass, Italian; [11]) | Ryegrass, Italian plant response rating (0 to 100 scale, 0 is no effect, 100 is complete control) (ryegrass, Italian; Postemergence, 500 g ai/ha) | Plant response rating, Pigweed (pigweed; [10]) | Plant response rating, Pigweed (pigweed; [11]) | Pigweed plant response rating (0 to 100 scale, 0 is no effect, 100 is complete control) (pigweed; Postemergence, 500 g ai/ha) | Plant response rating, Pigweed (pigweed; [8]) | Plant response rating, Rice (rice) | Plant response rating, Kochia (kochia; [10]) | Plant response rating, Kochia (kochia; [11]) | Kochia plant response rating (0 to 100 scale, 0 is no effect, 100 is complete control) (kochia; Postemergence, 500 g ai/ha) | Plant response rating, Barnyardgrass (barnyardgrass [2])
